The test system of assay [1] is MCF-7 C20 cells. Put plainly: Propidium iodide exclusion cell death assay, Nod1-deficient MCF-7 C20 cells. Format: cell-based, human. The note with it: C20 cells, charcoal-treated serum, γTriDAP/CHX (FIG. 12A, middle panel). The method, then:
Cell viability assays. […] Subsequently, cells were harvested, washed twice in FACS buffer (PBS containing 1% FCS and 0.1% NaN3) and resuspended in propidium iodide (PI)—containing FACS buffer (4 ug/ml). The extent of cell death was analyzed with a FACSCalibur flow cytometer (Becton Dickinson, Mountain View, Calif.). DAPI staining: MCF-7 cells were plated in chamber slides, and stimulated for 2 days. Cells were washed with PBS and apoptotic nuclei were stained with 1 μg/ml DAPI (Sigma Chemical Co., St. Louis, Mo.). Cells were fixed in 4% paraformaldehyde and examined by fluorescence microscopy.
(§1) To further investigate the role of Nod1 in apoptosis, a variety of cell types were incubated with the Nod1 ligand, […] (γTriDAP), which specifically activates Nod1. The cell types tested included the parental MCF-7 cell line, the Nod1-deficient MCF-7C20 clone, and a cell line engineered to contain an additional human Nod1 allele (MCF-7Nod1) so that Nod1 was over-expressed. To determine whether the resistance of C20 cells to γTriDAP-induced apoptosis resulted from the absence of Nod1, human Nod1 was stably expressed in MCF-7 C20 cells to produce Nod1-sufficient C20 cells (C20/Nod1). As another control, the parental MCF-7 cell line was transfected with an empty retroviral vector to generate MCF-7 Blasto cells. Cells were treated with γTriDAP in the presence or absence of cycloheximide (CHX) and cell death was then determined by propidium iodide staining and flow cytometry.

For assay [2], the system named is MCF-7 C20/Nod1 cells. Kind of assay: Propidium iodide exclusion apoptosis assay, MCF-7 C20/Nod1 cells. The note with it: C20/Nod1 and Blasto cells, charcoal-treated serum, increasing estrogen (FIG. 12A). The class given is cell-based, human. The method, then: Cell viability assays. Propidium iodide exclusion assay: Cells were stimulated as indicated for 2 days. Subsequently, cells were harvested, washed twice in FACS buffer (PBS containing 1% FCS and 0.1% NaN3) and resuspended in propidium iodide (PI)—containing FACS buffer (4 ug/ml). The extent of cell death was analyzed with a FACSCalibur flow cytometer (Becton Dickinson, Mountain View, Calif.). DAPI staining: MCF-7 cells were plated in chamber slides, and stimulated for 2 days. Cells were washed with PBS and apoptotic nuclei were stained with 1 μg/ml DAPI (Sigma Chemical Co., St. Louis, Mo.). Cells were fixed in 4% paraformaldehyde and examined by fluorescence microscopy.
as §1
To determine whether the presence of estrogens modulates Nod1-induced apoptotic pathway, cells were cultured in medium containing charcoal-treated serum.

For assay [3], the system named is MCF-7 C20 cells. Kind of assay: 3H-thymidine proliferation assay, MCF-7 C20 cells. Format: cell-based, human. The conditions noted are these: cells grown in the absence of estrogen, estrogen added; 3H-thymidine (FIG. 11D). The method, then:
Retroviral transfections. The various genes used in this study were cloned into pMSCV-Blasto, pBabe-Puro or pBabe-Neo retroviral vectors. MCF-7 cells were stably transfected using available procedures. Briefly, amphotropic 293 cells were transfected with retroviral vectors encoding selected Nod1, Nod2 and other proteins. Twenty-four hours post-transfection, cells were incubated at 32° C. overnight to produce viral particles. Target cells were infected the next day with virus-containing 293 cell supernatants containing recombinant retroviral particles. Cells were selected with 10 μg/ml blasticidin S (Calbiochem EMD Biosciences Inc., San Diego, Calif.), 500 μg/ml […] (Invitrogen, Carlsbad, Calif.) or 5 μg/ml puromycin (Calbiochem). The expression of all constructs was confirmed by Western blot analysis. To determine the effects of 17β-estradiol (Calbiochem), cells were cultured in phenol red-free DMEM supplemented with […]. Cells were seeded in 96 well plates with various concentration of 17β-estradiol (E2) for 24 h and pulsed with ^3H-thymidine (1 μCi/well, MP Biomedicals, Irvine, Calif.). Cells were harvested on glass fiber filters and radioactivity measured by liquid scintillation. […]

Assay [4] relates to MCF-7 Blasto cells. Kind of assay: Human xenograft in SCID mice, MCF-7 Blasto cells. Format: in vivo. The conditions noted are these: mice injected with MCF-7 Blasto cells, estrogen pellets present (FIG. 11B). The method, then:
(§2) Human xenografts in nude mice. MCF-7 Blasto, MCF-7 C20 and MCF-7 C20/Nod1 cells were trypsinized, washed once with PBS and resuspended to a concentration of 1.5×10^7/ml. Two hundred microliters of each suspension were inoculated subcutaneously into the flank of athymic SCID/SCID or SCID/Nod (non-obese diabetic) female mice. Tumor size was assessed once a week. Tumor volume was calculated.
(§3) Nod1 controls tumor formation. Nod1-dependent apoptotic pathways might be important in a number of biological processes, including tumor cell growth regulation and a failure of malignant cells to undergo cell death, leading to tumorigenesis. A xenograft model of tumor growth in SCID mice was used to examine the role that Nod1 plays in tumor growth and tumor rejection. Populations of MCF-7Blasto, MCF-7C20 and MCF-7C20Nod1 cells (each totaling about 3×10^6 cells), were separately injected subcutaneously into the flanks of female mice to induce tumor growth in SCID/SCID or SCID/Nod1 mice. Animals were scored for tumor formation once a week post-injection for up to 8 weeks.
(§4) In most studies, tumor formation by MCF-7 cells requires supplementation of estrogens for tumorigenesis in nude mice, even when cells are inoculated at high concentration. To further examine the role of estrogen in tumorigenesis, all three cell lines were injected into mice along with estrogen pellets (FIG. 11B). […]
(In general: A xenograft is tissue or cells of one species grown in another, often human tumour cells in immunodeficient mice.)

In assay [5] the test system is MCF-7 C20 cells. Put plainly: Human xenograft in SCID mice, MCF-7 C20 cells. Format: in vivo. The conditions noted are these: mice injected with MCF-7 C20 cells, estrogen pellets present (FIG. 11B). The method, then: as §2, §3, §4
The test system of assay [6] is MCF-7 C20/Nod1. Put plainly: Human xenograft in SCID mice, MCF-7 C20/Nod1 cells. The class given is in vivo. The conditions noted are these: mice that received MCF-7 C20/Nod1, estrogen pellets present (FIG. 11B). The method, then:
as §2, §3, §4

We go through one substance from patent publication US20060194740A1, “NOD1 as an anti-tumor agent” (priority 2005, published 2006).

17β-estradiol [estrogen]: the “effect of estrogen upon apoptosis” value in assay [1] was “little or no effect”. For the same substance, in assay [2], the “effect of estrogen upon γTriDAP-induced apoptosis” value is on record as “apoptosis increased in a dose-dependent manner”. Moreover, the proliferative response entry in assay [3] is on record as “strong proliferative response”. Besides, the figures for the tumor growth result in assay [4], in assay [5] and in assay [6] were “tumors grew”, “grew even larger” and “did not grow tumors”, respectively.
